According to EP0623675A1, “Altered affinity polypeptides of metal chelate binding antibodies” (HYBRITECH INCORPORATED, priority 1992, dated 1994):

Tests used:
[1] = tested on: CHA255 Fab' variant clone 1.1.1 (heavy chain CDR H1/H3 mutagenesis, Fig. 3B); experiment: Scatchard analysis of phage expressed altered CHA255 Fab' with InEOTUBE; type: binding, murine; details: compared with native CHA255 Fab' (synthesized and phage expressed); crude periplasm Fab', about 10 nM; cold InEOTUBE 2.43 nM to 0.082 nM
Protocol: (§1) Free Fab' was expressed and isolated from the periplasmic space of the non-suppressor strain MK30-3 as previously described (International Patent Publication No. WO 92/06204). The concentration of antibody in periplasm preparations was estimated by comparing the ELISA signal generated by aliquots of periplasm of mutant clones to a standard curve using purified CHA255 Fab'. Data points for the Scatchard plots were prepared by incubating antibody (100 µl, approximately 10 nM) diluted in 1X PBS, 1% BSA as crude periplasm fraction with dilutions of cold InEOTUBE (2.43 nM to 0.082 nM) in 1X PBS, 1% BSA hapten spiked with ¹¹¹InEOTUBE as a tracer for […]. This assay is described in greater detail in Example 3, below. The sample was centrifuged at 6,000 rpm for 10 minutes in an Amicon Centrifree™ micro-concentrator (Amicon, Grace Co., Danvers, MA), 10,000 MW cutoff, to separate free hapten from hapten bound to Fab'. Total and free counts were determined and the slope of a plot of the ratio of bound hapten to free hapten versus the concentration of bound hapten was calculated for affinity constant (Ka).
(§2) The following were added to a 96 well microtiter plate, in triplicate: • a. 25µl EOTUBE-¹¹¹In-ground state in at 4.40pg/µl; • b. 25µl EOTUBE-ground state in at serial dilutions of the 0.40ng/µl and 0.36ng/µl made above. Eleven dilutions each plus a zero giving 24 points with a range of 10ng/well down to 4.40pg/well plus a zero. Dilute with RPMI containing 10% horse serum; • c. 25µl RPMI containing 10% horse serum; • d. 25µl antibody of interest. (concentration determined by sensitivity assay); and • e. 20µl sheep anti-mouse IgG coupled to sepharose beads (same as used in sensitivity curve assay).
(§3) The plate was incubated overnight on a rotator at room temperature. The contents of wells were aspirated onto glass-fiber filter paper, cut out and counted. Molar bound vs. bound/free were graphed. The linear regression of the part of the curve that is a straight line was determined. Ka was the negative of the slope.

[2] = tested on: CHA255 Fab' variant clone 3.1.1 (heavy chain CDR H1/H3 mutagenesis, Fig. 3B); experiment: as above; type: binding, murine; details: compared with native CHA255 Fab' (synthesized and phage expressed); crude periplasm Fab', about 10 nM; cold InEOTUBE 2.43 nM to 0.082 nM
Protocol: as §1, §2, §3

[3] = tested on: CHA255 Fab' variant clone 3.2.1 (heavy chain CDR H1/H3 mutagenesis, Fig. 3B); experiment: as above; type: binding, murine; details: compared with native phage expressed CHA255 Fab'; crude periplasm Fab', about 10 nM; cold InEOTUBE 2.43 nM to 0.082 nM
Protocol: as §1, §2, §3

[4] = tested on: CHA255 Fab' variant clone 3.7.1 (heavy chain CDR H1/H3 mutagenesis, Fig. 3B); experiment: as above; type: binding, murine; details: compared with native CHA255 Fab' (synthesized and phage expressed); crude periplasm Fab', about 10 nM; cold InEOTUBE 2.43 nM to 0.082 nM
Protocol: as §1, §2, §3

[5] = tested on: CHA255 Fab' variant clone 4.2.1 (heavy chain CDR H1/H3 mutagenesis, Fig. 3B); experiment: as above; type: binding, murine; details: compared with native CHA255 Fab' (synthesized and phage expressed); crude periplasm Fab', about 10 nM; cold InEOTUBE 2.43 nM to 0.082 nM
Protocol: as §1, §2, §3

[6] = tested on: monoclonal antibody CHA255; experiment: Antibody CHA255 binding assay (Centrifree ultrafiltration of labeled chelate); parameters: species or system murine; details: radiolabeled chelate 5 nM, antibody 133 nM, PBS pH 7.4, 15 minutes at room temperature
Protocol: As indicated, the monoclonal antibody CHA255 is specific for the In(III)-benzyl EDTA complex. The affinity and characterization have been described previously by Reardon et al. in Nature 316:265 (1985). Binding assays were performed to verify the identity of the haptens designated as DB-I to DB-X and DDB-I to DDB-III. […] For the ⁹⁰Yttrium (III) hapten chelate, in particular, CHA255 binding required the presence of the Indiumbenzyl-EDTA moiety as provided in the compounds of the invention. The labeled DB and DDB hapten chelates were combined with antibody CHA255 in PBS (10 mM sodium phosphate, 150 mM sodium chloride, pH 7.4) containing 44 µg/mL of human serum albumin and 0.05% Triton-X-100 detergent. Concentrations of the radiolabeled hapten chelating agent and antibody were 5 nM and 133 nM, respectively. The mixture was vortexed and allowed to stand at room temperature for 15 minutes, after which it was transferred to an Amicon Centrifree™ device, with a NMW limit of 30,000, and centrifuged to separate antibody-bound chelate from free hapten chelate. The species bound to the antibody was retained by the membrane and the free chelate flowed through the membrane into the filtrate. The extent of antibody-hapten chelate binding was then determined.

Row | Substance | binding affinity (affinity constant Ka for InEOTUBE) [1] | binding affinity (affinity constant Ka for InEOTUBE) [2] | binding affinity (affinity constant Ka for InEOTUBE) [3] | binding affinity (affinity constant Ka for InEOTUBE) [4] | binding affinity (affinity constant Ka for InEOTUBE) [5] | antibody-hapten chelate binding [6]
1 | 4-[N'[2-hydroxyethyl]-thioureido]benzyl EDTA [InEOTUBE] | approximately equivalent | approximately equivalent | approximately one order of magnitude less than the native phage expressed Fab' | approximately equivalent | approximately equivalent | –
2 | diethylenetriaminepentaacetic acid [⁹⁰Yttrium (III) DTPA] | – | – | – | – | – | neither ⁹⁰Yttrium (III) or ¹¹¹Indium (III) DTPA, alone, bound
